Laboratory results reported in ChEMBL document CHEMBL1649287, “Postantibiotic effect of ceftaroline against gram-positive organisms” (2009).

Key:
[1] = test system: Streptococcus pneumoniae; assay: Antimicrobial activity against Streptococcus pneumoniae ATCC 6306 assessed as post antibiotic effect at 10 times MIC after 2 hr by plate counting method; type: functional
[2] = test system: Staphylococcus aureus; assay: Antimicrobial activity against Staphylococcus aureus ATCC 29213 assessed as post antibiotic effect at 10 times MIC after 2 hr by plate counting method; type: functional

With CO/N=C(\C(=O)N[C@@H]1C(=O)N2C(C(=O)O)=C(CSc3nc(=O)c(O)nn3C)CS[C@H]12)c1csc(N)n1 [CEFTRIAXONE] the PAE [1] was 0.7 h and the PAE [2] was 2.3 h.
